Experimental findings from patent publication US20260042764A1, “COMPOSITIONS AND METHODS FOR INHIBITION OF KRAS” (TheRas, Inc., priority 2022, published 2026) are described below.

For assay [1], the target named is T1, Avi-KRAS G12D (1-169) GppNHp/RAF1 RBD-3xFLAG (52-151) (Homo sapiens, UniProt P01116, G12D).
T1 construct: Avi-KRAS G12D (1-169)
Kind of assay: Raf1-KRAS G12D-GppNHP disruption HTRF assay (Biological Example 1). Format: binding. To be noted: KRAS G12D, GppNHp-loaded; class symbols. A digest of the protocol:
(§1)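 Protein mix, 1 h RT, 700 rpm; reagent mix, 1 h RT, 700 rpm; HTRF read. Buffer Tris pH 7.5/NaCl/MgCl2/BSA/Tween, 10% DMSO. Output % activity, DMSO = 100%.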

The target in assay [2] is T2, Avi-KRAS G12R (1-169) GppNHp/RAF1 RBD-3xFLAG (52-151) (Homo sapiens, UniProt P01116, G12R).
T2 construct: Avi-KRAS G12R (1-169)
Put plainly: Raf1-KRAS G12R-GppNHP disruption HTRF assay (Biological Example 1). The class given is binding. The following applies: KRAS G12R, GppNHp-loaded; class symbols. A digest of the protocol: as §1

In assay [3] the target is T3, Avi-KRAS G12V (1-169) GppNHp/RAF1 RBD-3xFLAG (52-151) (Homo sapiens, UniProt P01116, G12V).
T3 construct: Avi-KRAS G12V (1-169)
Kind of assay: Raf1-KRAS G12V-GppNHP disruption HTRF assay (Biological Example 1). The following applies: KRAS G12V, GppNHp-loaded; class symbols. Format: binding. A digest of the protocol:
as §1

The target of assay [4] is T4, Avi-KRAS WT (1-169) GppNHp/RAF1 RBD-3xFLAG (52-151) (Homo sapiens, UniProt P01116).
T4 construct: Avi-KRAS WT (1-169)
Put plainly: Raf1-KRAS WT-GppNHP disruption HTRF assay (Biological Example 1). Format: binding. To be noted: KRAS WT, GppNHp-loaded; class symbols. A digest of the protocol: as §1

Another assay relates to GP2d cells (KRAS G12D). Kind of assay: Cell-based pERK HTRF assay in GP2d cell (Biological Example 2). To be noted: GP2d, GP2d (KRAS G12D) cells, pERK HTRF; class symbols. A digest of the protocol: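 GP2d (KRAS G12D) cells were plated in DMEM/10% FBS and treated the next day for 60 min with compounds. Dosing used 9-point half-log series starting at 1 μM or 100 nM in 0.25% DMSO. Lysates were read by HTRF pERK (d2/Eu cryptate antibodies) after 4–24 h at room temperature, with excitation at 320 nm and emission at 615 nm.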

The test system of another assay is SW620 cells (KRAS G12V). Kind of assay: Cell-based pERK HTRF assay in SW620 cell (Biological Example 4). To be noted: Homo sapiens, SW-620, SW620 (KRAS G12V) cells, pERK HTRF; class symbols. A digest of the protocol:
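SW620 seeded in RPMI/10% FBS, next day dosed 4 h (top 1 μM, half-log, 9 pts, 0.25% DMSO). Lysed, pERK by d2/Eu cryptate HTRF, 4–24 h RT, 615 nm read.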

A value given as a limit tells only on which side of the number the result lay.

T2 sequence (P01116 1-169 isoform P01116-2 G12R): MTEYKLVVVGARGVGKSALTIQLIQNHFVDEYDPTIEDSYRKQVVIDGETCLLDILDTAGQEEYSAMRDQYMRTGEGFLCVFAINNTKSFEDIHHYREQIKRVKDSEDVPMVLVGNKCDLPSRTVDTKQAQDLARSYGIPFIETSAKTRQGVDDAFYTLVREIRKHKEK
T4 sequence (P01116 1-169 isoform P01116-2): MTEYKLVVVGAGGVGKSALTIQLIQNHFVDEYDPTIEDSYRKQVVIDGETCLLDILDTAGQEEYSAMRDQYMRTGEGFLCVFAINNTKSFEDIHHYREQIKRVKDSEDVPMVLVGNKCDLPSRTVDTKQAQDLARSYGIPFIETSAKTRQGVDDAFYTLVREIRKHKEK
T3 sequence (P01116 1-169 isoform P01116-2 G12V): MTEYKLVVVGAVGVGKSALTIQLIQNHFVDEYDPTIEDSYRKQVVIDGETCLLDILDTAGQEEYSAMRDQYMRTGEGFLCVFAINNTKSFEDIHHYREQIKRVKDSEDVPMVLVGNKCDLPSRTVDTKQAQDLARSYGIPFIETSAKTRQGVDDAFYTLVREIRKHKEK
T1 sequence (P01116 1-169 isoform P01116-2 G12D): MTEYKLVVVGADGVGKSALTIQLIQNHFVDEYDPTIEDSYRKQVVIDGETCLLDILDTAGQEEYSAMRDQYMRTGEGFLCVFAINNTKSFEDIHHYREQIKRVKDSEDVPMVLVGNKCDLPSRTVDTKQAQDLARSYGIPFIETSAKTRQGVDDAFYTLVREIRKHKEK

`CCN(c1nc(OC[C@@]23CCCN2C[C@H](F)C3)nc2c(F)c(-c3ccc(F)c4sc(N)c(C#N)c34)c(C(F)(F)F)cc12)[C@H]1CCN(C(=O)c2cncnc2)C1` (atropisomer, axis not shown) [Compound 727]: the IC50 was under 100 nM in assay [1]; under 100 nM in assay [2]; 100 to 1000 nM in assay [3]; 100 to 1000 nM in assay [4]; under 100 nM with GP2d cells (KRAS G12D); under 100 nM in the assay with SW620 cells (KRAS G12V).

`CN(C)C(=O)N1CC[C@H]2[C@@H]1CN2c1nc(OC[C@@]23CCCN2C[C@H](F)C3)nc2c(F)c(-c3ccc(F)c4sc(N)c(C#N)c34)c(C(F)(F)F)cc12` (atropisomer, axis not shown) [Compound 728]: the IC50 in assay [1] was in the range of 1000 to 10000 nM; in assay [2], 1000 to 10000 nM; in assay [3] it was 1000 to 10000 nM; in assay [4] it was 1000 to 10000 nM; in the assay with GP2d cells (KRAS G12D), 100 to 1000 nM; with SW620 cells (KRAS G12V) it was 100 to 1000 nM.

With `CCN(c1nc(OC[C@@]23CCCN2C[C@H](F)C3)nc2c(F)c(-c3ccc(F)c4sc(N)c(C#N)c34)c(C(F)(F)F)cc12)[C@H]1CCN(C(=O)c2cnsc2)C1` (atropisomer, axis not shown) [Compound 729], the IC50 (in assay [1]; in assay [2]; in assay [3]; in assay [4]; in the assay on GP2d cells (KRAS G12D); in the assay with SW620 cells (KRAS G12V)) was under 100 nM in each case.

Take `CCN(c1nc(OC[C@@]23CCCN2C[C@H](F)C3)nc2c(F)c(-c3ccc(F)c4sc(N)c(C#N)c34)c(C(F)(F)F)cc12)[C@H]1CCN(C(=O)c2ccncn2)C1` (atropisomer, axis not shown) [Compound 730]: the IC50 (in assay [1]; in assay [2]; in assay [3]; in assay [4]; with GP2d cells (KRAS G12D); with SW620 cells (KRAS G12V)) was under 100 nM throughout.

Turning to `CCN(c1nc(OC[C@@]23CCCN2C[C@H](F)C3)nc2c(F)c(-c3ccc(F)c4sc(N)c(C#N)c34)c(C(F)(F)F)cc12)[C@H]1CCN(C(=O)c2cnnn2C)C1` (atropisomer, axis not shown) [Compound 733], the IC50 in assay [1] was under 100 nM; in assay [2] it was 100 to 1000 nM; in assay [3], 100 to 1000 nM; in assay [4] it was 100 to 1000 nM; in the assay with GP2d cells (KRAS G12D) it was under 100 nM; in the assay on SW620 cells (KRAS G12V), under 100 nM.

Take `CCN(c1nc(OC[C@@]23CCCN2C[C@H](F)C3)nc2c(F)c(-c3ccc(F)c4sc(N)c(C#N)c34)c(C(F)(F)F)cc12)[C@H]1C[C@@H](C)N(C(=O)N2CC(OC)C2)C1` (atropisomer, axis not shown) [Compound 734]: the IC50 was 100 to 1000 nM in assay [1]; 100 to 1000 nM in assay [2]; 100 to 1000 nM in assay [3]; 100 to 1000 nM in assay [4]; under 100 nM in the assay with GP2d cells (KRAS G12D); under 100 nM with SW620 cells (KRAS G12V).

Take `CCN(c1nc(OC[C@@]23CCCN2C[C@H](F)C3)nc2c(F)c(-c3ccc(F)c4sc(N)c(C#N)c34)c(C(F)(F)F)cc12)[C@H]1CCN(C(=O)[C@H]2CCCO2)C1` (atropisomer, axis not shown) [Compound 735]: the IC50 (in assay [1]; in assay [2]; in assay [3]; in assay [4]; in the assay with GP2d cells (KRAS G12D); in the assay on SW620 cells (KRAS G12V)) was under 100 nM in each case.

For `Cc1ccc(CN(C)c2nc(OC[C@@]34CCCN3C[C@H](F)C4)nc3c(F)c(-c4ccc(F)c5sc(N)c(C#N)c45)c(C(F)(F)F)cc23)c(N)n1` (atropisomer, axis not shown) [Compound 736], the IC50 was 100 to 1000 nM in assay [1]; 100 to 1000 nM in assay [2]; 100 to 1000 nM in assay [3]; 1000 to 10000 nM in assay [4]; under 100 nM in the assay on GP2d cells (KRAS G12D); 100 to 1000 nM in the assay with SW620 cells (KRAS G12V).

Take `CCN(c1nc(OC[C@@]23CCCN2C[C@H](F)C3)nc2c(F)c(-c3ccc(F)c4sc(N)c(C#N)c34)c(C(F)(F)F)cc12)[C@H]1C[C@H](C)N(C(=O)[C@H](C)OC)C1` (atropisomer, axis not shown) [Compound 739]: the IC50 was under 100 nM in assay [1]; under 100 nM in assay [2]; 100 to 1000 nM in assay [3]; under 100 nM in assay [4]; under 100 nM with GP2d cells (KRAS G12D); under 100 nM with SW620 cells (KRAS G12V).

For `CN(C)C(=O)N1CC[C@H](N(c2nc(OC[C@@]34CCCN3C[C@H](F)C4)nc3c(F)c(-c4ccc(F)c5sc(N)c(C#N)c45)c(C(F)(F)F)cc23)C2CC2)C1` (atropisomer, axis not shown) [Compound 743], the IC50 in assay [1] was 100 to 1000 nM; in assay [2] it was 100 to 1000 nM; in assay [3] it was 100 to 1000 nM; in assay [4], 100 to 1000 nM; with GP2d cells (KRAS G12D), under 100 nM; with SW620 cells (KRAS G12V), under 100 nM.

In the case of `CCN(c1nc(OC[C@@]23CCCN2C[C@H](F)C3)nc2c(F)c(-c3ccc(F)c4sc(N)c(C#N)c34)c(C(F)(F)F)cc12)[C@H]1CCN(C(=O)[C@@H]2CCCO2)C1` (atropisomer, axis not shown) [Compound 745], the IC50 (in assay [1]; in assay [2]; in assay [3]; in assay [4]; in the assay on GP2d cells (KRAS G12D); with SW620 cells (KRAS G12V)) was under 100 nM in each case.

`CCN(c1nc(OC[C@@]23CCCN2C[C@H](F)C3)nc2c(F)c(-c3ccc(F)c4sc(N)c(C#N)c34)c(C(F)(F)F)cc12)[C@H]1CCN(C(=O)[C@H](C)CO)C1` (atropisomer, axis not shown) [Compound 746]: the IC50 (in assay [1]; in assay [2]; in assay [3]; in assay [4]; in the assay with GP2d cells (KRAS G12D); with SW620 cells (KRAS G12V)) was under 100 nM throughout.

For `CCN(c1nc(OC[C@@]23CCCN2C[C@H](F)C3)nc2c(F)c(-c3ccc(F)c4sc(N)c(C#N)c34)c(C(F)(F)F)cc12)[C@H]1C[C@H](C)N(C(=O)[C@@H](C)OC)C1` (atropisomer, axis not shown) [Compound 747], the IC50 in assay [1] is 100 to 1000 nM; in assay [2], 100 to 1000 nM; in assay [3], 100 to 1000 nM; in assay [4], 100 to 1000 nM; in the assay on GP2d cells (KRAS G12D), under 100 nM; in the assay on SW620 cells (KRAS G12V) it was under 100 nM.

Consider `CCN(c1nc(OC[C@@]23CCCN2C[C@H](F)C3)nc2c(F)c(-c3ccc(F)c4sc(N)c(C#N)c34)c(C(F)(F)F)cc12)[C@H]1CCN(C(=O)c2cnn(C)c2)C1` (atropisomer, axis not shown) [Compound 748], for which the IC50 (in assay [1]; in assay [2]; in assay [3]; in assay [4]; in the assay with GP2d cells (KRAS G12D); in the assay on SW620 cells (KRAS G12V)) was under 100 nM each time.

Consider `CCN(c1nc(OC[C@@]23CCCN2C[C@H](F)C3)nc2c(F)c(-c3ccc(F)c4sc(N)c(C#N)c34)c(C(F)(F)F)cc12)[C@H]1CCN(C(=O)[C@H]2C[C@H]2F)C1` (atropisomer, axis not shown) [Compound 750], for which the IC50 (in assay [1]; in assay [2]; in assay [3]; in assay [4]; with GP2d cells (KRAS G12D); in the assay with SW620 cells (KRAS G12V)) was under 100 nM throughout.
